Here are results for one molecule from ChEMBL document CHEMBL1145923, “Synthesis and biological evaluation of 4-arylcoumarin analogues of combretastatins” (J Med Chem, 2003).

The experiment relates to CCRF-CEM. Nature of the experiment: Inhibitory activity against CEM human leukemia cell line. The experiment is classed as functional, cell-based.

Where only a bound is given, the exact number is not on record here.

For `COc1cc2oc(=O)cc(-c3ccc4c(c3)OCO4)c2c(OC)c1OC`, the IC50 (in general, the point on the concentration scale where inhibition reaches its midpoint) is above 50 µM.
